Assays:
MTF1 = biological target: T1, MTF1 (Mus musculus, UniProt Q07243); test: MTF1 activity reporter gene assay and immunostaining in chondrocytes; format: cell-based
T1 construct: endogenous in cells; host or cells: primary mouse articular chondrocytes
Description: The MTF1 reporter gene assay kit was obtained from SABiosciences. Chondrocytes were transfected for 6 hours with a metal response element (MRE) reporter construct and a constitutive Renilla luciferase construct using Lipofectamine 2000 (Invitrogen). Transfected cells were infected with Ad-Mtf1 or Ad-Zip8 for 2 hours or treated with metal ions. Cells were harvested 24 hours after treatment, and firefly luciferase and Renilla luciferase activities were measured using a Dual Luciferase Assay System (Promega). […] MTF1 was detected by immunofluorescence microscopy. Images were acquired using a fluorescence microscope, and at least 200 cells were examined in multiple fields per condition to quantify the percentage of nuclear MTF1-positive cells.

DMM-operated mice = test: DMM surgery-induced OA with Zn^2+ diets or intraperitoneal ZnCl2; format: in vivo, mouse; conditions: intraperitoneal, 5 mg/kg body weight twice a week, 6 weeks after surgery
Description: FIG. 6m represents that knee joint sections were prepared from sham- and DMM-operated mice that were fed low-Zn^2+ (<0.5 mg zinc/kg), adequate-Zn^2+ (30 mg zinc/kg), or high-Zn^2+ (300 mg zinc/kg) diets. Cartilage destruction was determined by safranin-O/hematoxylin staining and quantified (n=10).
FIG. 6n represents that sham- and DMM-operated mice were intraperitoneally injected with PBS or ZnCl2 (5 mg/kg body weight) twice a week until they are sacrificed 6 weeks after surgery. Knee joint sections were stained with safranin-O/hematoxylin and cartilage destruction was determined (n=10). […]
Human OA cartilage was frozen, sectioned at 10-μm thickness, and fixed in paraformaldehyde. Sulfate proteoglycan was detected with alcian blue staining. Human ZIP8 was detected by immunostaining. […] Sections were deparaffinized in xylene, hydrated with graded ethanol, and stained with safranin-O. Cartilage destruction was scored by two blinded observers using the OARSI grading system (Glasson et al., 2010). Synovitis was determined by safranin-O and hematoxylin staining, and synovial inflammation (grade 0-3) was scored as described previously (Yang et al., 2010). Osteophyte development was identified by safranin-O staining, and osteophyte maturity was quantified as described previously (Oh et al., 2012). […]

Mt1 and Mt2 = test: mRNA and protein levels of MT1 and MT2 in chondrocytes; format: cell-based, mouse; conditions: primary cultured chondrocytes
Description: (§1) Total RNA was extracted from primary cultured chondrocytes using the TRI reagent (Molecular Research Center Inc.). For the isolation of RNA from knee joints, cartilage tissues were scraped with a blade to remove cartilage, and RNA was isolated using the TRI reagent and Purelink RNA mini kit (Ambion). The RNA was reverse transcribed, and the resulting cDNA was amplified by PCR.

[1] = tested on: matrix-degrading enzymes (MMP3, MMP9, MMP12, MMP13, and ADAMTS5); test: mRNA (qRT-PCR) and protein (Western blotting) levels of matrix-degrading enzymes in chondrocytes; format: cell-based, mouse
Description: Adenoviruses expressing mouse Zip8 (Ad-Zip8) and Mtf1 (Ad-Mtf1) were purchased from Vector Biolabs. Mouse articular chondrocytes were cultured for 2 days, infected with empty virus (Ad-C), Ad-Zip8, or Ad-Mtf1 for 2 hours at the indicated multiplicity of infection (MOI), and cultured for 24 hours, followed by further analyses.
as §1
Transcript levels were quantified by qRT-PCR. siRNAs targeting Zip8 and Mtf1 were obtained from Dharmacon and transfected using Lipofectamine 2000. Non-targeting (scrambled) siRNA was used as a negative control. Chondrocytes were transfected by incubating for 6 hours with siRNA and Lipofectamine 2000 (Invitrogen), and infected with adenoviruses as described above. Therapeutic antibodies for obstruction of ZIP8 function were purchased from Santa Cruz Biotechnology and MyBioSource Company, and treated in chondrocytes for 24 hours.
Total cell lysates were prepared in lysis buffer (150 mM NaCl, 1% NP-40, 50 mM Tris, 5 mM NaF) and used to detect cellular proteins (ZIP8, MTF1, and ERK). Secreted proteins (MMP3, MMP13, and ADAMTS5) were detected after trichloroacetic acid (TCA) precipitation from 900 μl of serum-free conditioned medium. All lysis buffers contained a cocktail of protease inhibitors and phosphatase inhibitors (Roche).

[2] = Ad-Zip8 chondrocytes, TPEN 1 μM pre-incubated with 1 μM metal ion

T1 sequence (Q07243 whole entry): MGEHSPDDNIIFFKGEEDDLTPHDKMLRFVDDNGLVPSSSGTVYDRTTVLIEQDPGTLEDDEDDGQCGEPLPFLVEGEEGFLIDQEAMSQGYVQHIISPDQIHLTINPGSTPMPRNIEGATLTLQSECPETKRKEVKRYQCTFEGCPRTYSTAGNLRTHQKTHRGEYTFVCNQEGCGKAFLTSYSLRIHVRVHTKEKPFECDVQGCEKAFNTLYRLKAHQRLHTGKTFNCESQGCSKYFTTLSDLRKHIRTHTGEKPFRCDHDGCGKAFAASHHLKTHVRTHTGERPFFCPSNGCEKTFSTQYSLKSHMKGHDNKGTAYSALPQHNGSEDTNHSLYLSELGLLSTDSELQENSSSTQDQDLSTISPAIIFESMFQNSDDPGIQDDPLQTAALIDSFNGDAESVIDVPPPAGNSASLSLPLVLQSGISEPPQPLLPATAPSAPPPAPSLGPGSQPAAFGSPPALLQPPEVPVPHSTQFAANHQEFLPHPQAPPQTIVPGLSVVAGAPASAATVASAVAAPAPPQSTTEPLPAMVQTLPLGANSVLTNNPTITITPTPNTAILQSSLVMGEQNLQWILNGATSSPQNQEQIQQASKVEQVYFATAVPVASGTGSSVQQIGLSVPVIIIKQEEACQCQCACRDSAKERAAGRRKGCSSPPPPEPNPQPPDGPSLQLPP

[Cl-].[Cl-].[Zn+2] [ZnCl2]
inhibitory effects of TPEN on MTF1 transcriptional activity, effect of pre-incubation of TPEN with the metal salt (MTF1; [2]): abolished
nuclear localization of MTF1 (MTF1; chondrocytes): most effective
MTF1 transcriptional activity, effect of the substance itself (MTF1; chondrocytes, reporter gene assay): most effective
DMM-induced cartilage destruction (DMM-operated mice): augmented
expression of Mt1 and Mt2 (Mt1 and Mt2): significantly increased
inhibitory effects of TPEN on the ZIP8-mediated expression of matrix-degrading enzymes, effect of pre-incubation of TPEN with the metal salt [1, 2]: effectively abolished
expression of matrix-degrading enzymes caused by the substance itself ([1]; chondrocytes, metal salts 100 μM (CdCl2 1 μM)): up-regulated
